In PMC6063846, “Matrine inhibits itching by lowering the activity of calcium channel” (Scientific Reports, 2018):

Molecular target: T1, N-type calcium channel (Mus musculus, UniProt O55017)
T1 construct: gene Cacna1b
Format: cell-based

T1 sequence (O55017 whole entry): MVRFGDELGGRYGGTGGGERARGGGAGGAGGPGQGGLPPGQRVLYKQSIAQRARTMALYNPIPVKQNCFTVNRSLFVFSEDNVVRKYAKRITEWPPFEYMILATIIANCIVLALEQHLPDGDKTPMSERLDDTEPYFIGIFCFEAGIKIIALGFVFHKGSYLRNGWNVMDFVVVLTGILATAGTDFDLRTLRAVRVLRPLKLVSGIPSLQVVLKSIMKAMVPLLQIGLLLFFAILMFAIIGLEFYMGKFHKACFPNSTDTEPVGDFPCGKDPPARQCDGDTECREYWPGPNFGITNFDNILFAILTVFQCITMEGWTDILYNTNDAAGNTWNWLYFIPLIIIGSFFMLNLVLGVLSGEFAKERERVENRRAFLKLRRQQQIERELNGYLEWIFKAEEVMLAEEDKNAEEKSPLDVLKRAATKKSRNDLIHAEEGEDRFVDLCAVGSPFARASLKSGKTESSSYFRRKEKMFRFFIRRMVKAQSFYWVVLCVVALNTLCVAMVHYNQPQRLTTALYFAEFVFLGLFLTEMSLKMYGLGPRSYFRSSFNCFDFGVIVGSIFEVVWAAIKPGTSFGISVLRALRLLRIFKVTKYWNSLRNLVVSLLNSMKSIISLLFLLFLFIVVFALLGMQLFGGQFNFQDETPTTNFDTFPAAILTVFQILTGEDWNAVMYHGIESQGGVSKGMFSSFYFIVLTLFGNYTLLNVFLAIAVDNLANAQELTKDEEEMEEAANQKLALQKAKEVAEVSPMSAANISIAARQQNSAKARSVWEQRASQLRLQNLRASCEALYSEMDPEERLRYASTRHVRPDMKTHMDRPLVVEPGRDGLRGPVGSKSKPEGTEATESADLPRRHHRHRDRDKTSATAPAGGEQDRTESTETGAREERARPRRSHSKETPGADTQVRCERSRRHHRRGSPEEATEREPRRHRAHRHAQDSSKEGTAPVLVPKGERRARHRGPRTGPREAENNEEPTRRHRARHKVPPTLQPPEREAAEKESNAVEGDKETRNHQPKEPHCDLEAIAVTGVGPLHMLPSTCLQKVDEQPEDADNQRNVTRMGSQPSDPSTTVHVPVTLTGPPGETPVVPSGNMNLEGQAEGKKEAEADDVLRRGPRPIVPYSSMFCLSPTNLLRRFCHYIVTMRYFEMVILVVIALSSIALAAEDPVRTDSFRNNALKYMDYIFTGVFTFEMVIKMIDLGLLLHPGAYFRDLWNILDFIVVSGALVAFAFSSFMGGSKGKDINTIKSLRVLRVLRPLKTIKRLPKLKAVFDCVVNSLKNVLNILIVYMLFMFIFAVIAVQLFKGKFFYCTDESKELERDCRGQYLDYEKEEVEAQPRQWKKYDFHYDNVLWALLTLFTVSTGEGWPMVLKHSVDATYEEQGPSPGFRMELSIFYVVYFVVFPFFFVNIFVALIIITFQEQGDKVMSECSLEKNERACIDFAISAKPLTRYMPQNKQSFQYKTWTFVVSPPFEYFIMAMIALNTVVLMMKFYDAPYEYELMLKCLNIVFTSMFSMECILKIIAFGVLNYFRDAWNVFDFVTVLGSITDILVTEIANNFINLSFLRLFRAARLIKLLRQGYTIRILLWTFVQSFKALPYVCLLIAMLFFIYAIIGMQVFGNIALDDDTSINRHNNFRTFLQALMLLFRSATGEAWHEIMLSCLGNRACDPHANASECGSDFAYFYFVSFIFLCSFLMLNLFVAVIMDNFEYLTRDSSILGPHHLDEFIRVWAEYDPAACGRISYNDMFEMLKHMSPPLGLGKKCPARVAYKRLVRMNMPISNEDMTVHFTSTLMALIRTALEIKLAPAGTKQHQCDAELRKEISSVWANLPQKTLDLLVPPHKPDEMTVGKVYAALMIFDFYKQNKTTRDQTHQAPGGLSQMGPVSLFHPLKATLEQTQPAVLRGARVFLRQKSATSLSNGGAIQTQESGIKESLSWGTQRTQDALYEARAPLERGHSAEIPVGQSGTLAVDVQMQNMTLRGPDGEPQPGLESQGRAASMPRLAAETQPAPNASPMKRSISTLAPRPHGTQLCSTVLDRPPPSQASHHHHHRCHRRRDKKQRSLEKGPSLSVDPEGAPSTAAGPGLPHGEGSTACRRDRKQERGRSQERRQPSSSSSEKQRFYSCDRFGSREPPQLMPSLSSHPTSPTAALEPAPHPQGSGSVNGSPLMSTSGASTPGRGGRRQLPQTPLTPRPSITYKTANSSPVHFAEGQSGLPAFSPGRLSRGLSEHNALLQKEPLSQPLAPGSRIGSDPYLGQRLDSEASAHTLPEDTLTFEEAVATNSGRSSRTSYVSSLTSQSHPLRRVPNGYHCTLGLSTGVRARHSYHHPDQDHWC

Q: `O=C1CCC[C@@H]2[C@H]3CCCN4CCC[C@@H](CN12)[C@@H]34` [MT, Matrine] was tested. Which “whole-cell patch clamp of HVA Ca2+ currents in native mouse DRG neurons, occlusi” value did it give?
A: the inhibitory effect of MT on HVA Ica current is mainly by inhibiting the N-type calcium channel
